Earlier results in US7678393B1, “Mixture composition and method useful for topical and internal application” (DB Laboratories LLC, priority 2006, dated 2010).

Assays:
Interlukin-2 (IL-2) = Interlukin-2 (IL-2) (Homo sapiens, UniProt P60568); conditions: by direct binding of IL-2
cyclooxygenase-2 (COX-2) = conditions: LPS stimulation
F0F1-ATPase/ATP synthase = conditions: micromolar concentrations
iNOS = conditions: LPS stimulation

Sequence of Interlukin-2 (IL-2) (P60568 21-153, species assumed): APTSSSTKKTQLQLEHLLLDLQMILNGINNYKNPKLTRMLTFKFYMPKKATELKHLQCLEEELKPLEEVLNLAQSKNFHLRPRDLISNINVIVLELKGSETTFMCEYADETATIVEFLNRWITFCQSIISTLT

| Compound | COX-2 activation by LPS (cyclooxygenase-2 (COX-2)) | inhibition of F0F1-ATPase/ATP synthase (F0F1-ATPase/ATP synthase) | iNOS activation by LPS (iNOS) | further results |
| --- | --- | --- | --- | --- |
| Lipoteichoic acid [LTA] | – | – | – | bound in plasma lipoproteins, efficiency (plasma lipoproteins; plasma): > 95%; distribution in HDL (plasma lipoproteins; plasma lipoproteins): 68%±10%; distribution in LDL (plasma lipoproteins; plasma lipoproteins): 28%±8%; distribution in VLDL (plasma lipoproteins; plasma lipoproteins): 4%±5%; Interlukin-2 function (Interlukin-2 (IL-2)): inhibits |
| O=c1c(O)c(-c2ccc(O)cc2)oc2cc(O)cc(O)c12 [kaempferol] | inhibited | showed inhibition at micromolar concentrations | inhibited | – |
| Oc1ccc(/C=C/c2cc(O)cc(O)c2)cc1 [resveratol] | – | showed inhibition at micromolar concentrations | – | – |
| O=C(OC[C@H]1O[C@@H](OC(=O)c2cc(O)c(O)c(OC(=O)c3cc(O)c(O)c(O)c3)c2)[C@H](OC(=O)c2cc(O)c(O)c(OC(=O)c3cc(O)c(O)c(O)c3)c2)[C@@H](OC(=O)c2cc(O)c(O)c(OC(=O)c3cc(O)c(O)c(O)c3)c2)[C@@H]1OC(=O)c1cc(O)c(O)c(OC(=O)c2cc(O)c(O)c(O)c2)c1)c1cc(O)c(O)c(OC(=O)c2cc(O)c(O)c(O)c2)c1 [tannic acid] | – | showed inhibition at micromolar concentrations | – | – |
| O=C(O[C@@H]1Cc2c(O)cc(O)cc2O[C@@H]1c1cc(O)c(O)c(O)c1)c1cc(O)c(O)c(O)c1 [(−)epigallocatechin-3-gallate] | inhibited | showed inhibition at micromolar concentrations | inhibited | – |
| O=c1cc(-c2ccc(O)cc2)oc2cc(O)cc(O)c12 [apigenin] | inhibited | – | inhibited | – |
